Experimental data reported in US20120258974A1, “USE OF A2B ADENOSINE RECEPTOR ANTAGONISTS FOR TREATING HEART FAILURE AND ARRHYTHMIA IN POST-MYOCARDIAL INFARCTION PATIENTS” (GILEAD SCIENCES, INC., priority 2011, published 2012).
“Also recorded” adds a separate entry of the source.

How the values were obtained:
[1] = test system: human cardiac myocytes (HCM); experiment: NECA-induced IL-6 release from human cardiac myocytes (Example 7); format: cell-based; details: for effect of NECA on HCM (IL-6 release): NECA in combination with antagonist
Procedure: This example uses human cardiac myocytes to test two other A2B adenosine receptor antagonists on their effect on NECA-induced IL-6 release.
Human cardiac myocytes (HCM) were treated with NECA alone, or in combination with Compound A, Compound B (N-[5-(1-cyclopropyl-2,6-dioxo-3-propyl-2,3,6,7-tetrahydro-1H-purin-8-yl)-pyridin-2-yl]-N-ethyl-nicotinamide, also known as ATL-801) or Compound C (2-(4-benzyloxy-phenyl)-N-[5-(2,6-dioxo-1,3-dipropyl-2,3,6,7-tetrahydro-1H-purin-8-yl)-1-methyl-1H-pyrazol-3-yl]-acetamide).

[2] = test system: rats with MI (25 minutes coronary occlusion followed by reperfusion); experiment: Rat model of post-MI remodeling: serial echocardiograms (Example 6); format: in vivo
Procedure: The effects of Compound A in a rat model of post-MI remodeling and VT were determined. MI was caused by 25 minutes occlusion at the left anterior descending coronary ligation followed by reperfusion. One week later, rats were administered either vehicle or Compound A (100 mg/kg) once daily by oral gavage. Serial echocardiograms (ECHOs) to measure LV ejection fraction (LVEF), stroke volume and LV end systolic volume (LVESV) were obtained at baseline, 1 week and 5 week post-MI. Electrophysiological studies, optical mapping, histology and biomarker analysis were conducted at 5 week post-MI.

[3] = test system: primary human cardiac fibroblasts (HCF); experiment: NECA-induced release of IL-6, collagen, ST-2, PAPPA and expression of fibrotic markers in human cardiac fibroblasts (Example 2); format: cell-based
Procedure: Real-time RT-PCR was performed as published using Stratagene PCR equipment (La Jolla, Calif.). Zhong H., et al., “A2B adenosine receptors increase cytokine release by bronchial smooth muscle cells,” American Journal of Respiratory Cell and Molecular Biology, 30(1): 118-125 (2004).
Expression of AdoR, α-smooth muscle actin and α-1 pro-collagen was determined using real-time RT-PCR. The concentration of IL-6, soluble ST-2 and PAPPA (Pregnancy-associated plasma protein A) in the cell supernatants were measured using ELISA, and the concentration of soluble collagen were determined using Sircol™ collagen assay.

In the case of `CCCn1c(=O)n(C2CC2)c(=O)c2[nH]c(-c3ccc(N(CC)C(=O)c4cccnc4)nc3)nc21` [Compound B, N-[5-(1-cyclopropyl-2,6-dioxo-3-propyl-2,3,6,7-tetrahydro-1H-purin-8-yl)-pyridin-2-yl]-N-ethyl-nicotinamide], the “effect of NECA on HCM (IL-6 release)” value [1] was “completely abolished”.
With `CCCn1c(=O)c2[nH]c(-c3cc(NC(=O)Cc4ccc(OCc5ccccc5)cc4)nn3C)nc2n(CCC)c1=O` [Compound C] the “effect of NECA on HCM (IL-6 release)” value [1] was “completely abolished”.
With `Cc1ccc(=O)n(-c2ccccc2)c1` [pirfenidone, reference compound] the “reduction of LVEF” value ([2]; post-MI, Example 6 and FIG. 12B) was “only slowed” and the “LVESV (so in the source): increase and further reduction” value ([2]; rat post-MI, comparison with Compound A, FIG. 12B) was “did not increase; also recorded: only slightly inhibited”.
For N-ethylcarboxamide adenosine [NECA], the “IL-6 release from human cardiac myocytes” value ([1]; NECA alone) was “significantly increased”, the “soluble collagen concentration after stimulation” value ([3]; NECA 10 μM, basal 3.4±0.2) was 6.0 ± 0.4 µg/mL and the “production of collagen, fold induction” value ([3]; NECA 10 μM, p<0.05) was 1.8±0.1 fold. The “expression of α-1 pro-collagen” value ([3]; NECA 10 μM, real-time RT-PCR) was “increased”, the “expression of α-smooth muscle actin” value ([3]; NECA 10 μM, real-time RT-PCR) was “increased” and the “PAPPA concentration after stimulation” value ([3]; basal 1.4±0.5) was 6.2 ± 0.8 ng/mL. For the same compound, the “soluble ST-2 concentration after stimulation” value ([3]; basal 1.5±0.1) was 2.6 ± 0.1 ng/mL, the “release of IL-6, maximal increase over the basal level” value ([3]; concentration-dependent) was 2.4±0.1 fold and the “release of PAPPA, fold induction” value ([3]; p<0.05) was 4.4±0.6 fold. The “release of soluble ST-2, fold induction” value ([3]; p<0.05) was 1.7±0.1 fold.
